{
  "source": "patent US20260209219A1",
  "about": "“SUBSTITUTED TETRAHYDROPYRROLO-PYRIDINONE COMPOUNDS AND THEIR USE IN TREATING MEDICAL CONDITIONS” (Karuna Therapeutics, Inc., priority 2022, published 2026)",
  "key": {"rM4 receptors": {"biological_target": "T1, rM4 receptors (Rattus norvegicus, UniProt P08485)", "T1 construct": "expressed in transfected cells; host or cells: CHO cells", "T1 sequence (P08485 1-478)": "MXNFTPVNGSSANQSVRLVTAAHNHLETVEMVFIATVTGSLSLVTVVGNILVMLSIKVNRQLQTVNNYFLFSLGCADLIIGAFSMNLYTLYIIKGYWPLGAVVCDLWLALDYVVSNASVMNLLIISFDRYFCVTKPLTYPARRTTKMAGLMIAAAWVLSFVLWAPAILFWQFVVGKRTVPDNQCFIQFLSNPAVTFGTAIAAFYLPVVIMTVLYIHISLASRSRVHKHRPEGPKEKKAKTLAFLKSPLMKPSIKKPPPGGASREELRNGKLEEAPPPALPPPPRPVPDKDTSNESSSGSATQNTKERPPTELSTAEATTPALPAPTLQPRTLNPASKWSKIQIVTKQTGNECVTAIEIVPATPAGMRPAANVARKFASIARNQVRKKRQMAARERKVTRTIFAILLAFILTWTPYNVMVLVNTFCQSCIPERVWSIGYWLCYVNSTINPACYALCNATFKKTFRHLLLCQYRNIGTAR", "experiment": "Rat M4 PAM pERK assay", "assay_type": "cell-based", "details": "CHO cells expressing rM4; with EC20 of acetylcholine (10 nM final)", "procedure": "Chinese hamster ovary (CHO) cells expressing either hM4 or rM4 receptors were frozen in assay ready vials (5×10^6 cells/vial) after bulking-up in culture. The day before an assay, vial(s) were thawed and cells seeded in 384 well white proxiplates at 1000/well for hM4 cells and at 2000/well for rM4 cells, in 10 μL of growth media (Hams/F12 with glutamax and 10% FCS) and incubated overnight at 37° C./5% CO2.\nOn the following morning, the growth media was removed by ‘flicking out’ over a bin, patting the inverted plate onto tissue, and then replacing with 10 μL of wash media (Hams/F12 with glutamax and 8 mM HEPES, NB: serum free). Then, the wash media was removed in the same way and replaced with 8 μL/well of the serum free media. Plates were then re-incubated for a further 4 hours at 37° C./5% CO2.\nCompounds for testing were solubilized to 10 mM in DMSO and compound addition plates, consisting of ten-point concentration response curves (CRC) in duplicate points (10 μM top concentration, ½ log dilution series), were prepared by acoustic dispensing and the compound management group.\nAfter the 4-hour incubation in serum free media, a 4 μL aliquot of the 3× compound solution containing an EC20 of acetylcholine (10 nM final concentration) was added to the cell plate using a 384 well plate to plate transfer. Then, the plate lid was replaced, and the cells incubated for 5 mins at 37° C./5% CO2. Following this final incubation, all cellular processes were stopped by the addition of 4 μL/well of lysis and blocking buffer and plates were incubated for 30 minutes at RT on an orbital shaker (gentle setting). Then, a final addition of 4 μL/well of antibody detection mix, containing both the Europium-Cryptate (donor) and d2 (acceptor) tagged detection components, was added followed by a further 2-hour incubation at RT, and then the plate was read using a TR-FRET (time resolved fluorescence resonance energy transfer) based protocol."}, "human M4 receptor": {"biological_target": "T2, human M4 receptor (Homo sapiens, UniProt P08173)", "T2 construct": "expressed in transfected cells; host or cells: CHO-K1 cells (membrane preparation)", "T2 sequence (P08173 1-479)": "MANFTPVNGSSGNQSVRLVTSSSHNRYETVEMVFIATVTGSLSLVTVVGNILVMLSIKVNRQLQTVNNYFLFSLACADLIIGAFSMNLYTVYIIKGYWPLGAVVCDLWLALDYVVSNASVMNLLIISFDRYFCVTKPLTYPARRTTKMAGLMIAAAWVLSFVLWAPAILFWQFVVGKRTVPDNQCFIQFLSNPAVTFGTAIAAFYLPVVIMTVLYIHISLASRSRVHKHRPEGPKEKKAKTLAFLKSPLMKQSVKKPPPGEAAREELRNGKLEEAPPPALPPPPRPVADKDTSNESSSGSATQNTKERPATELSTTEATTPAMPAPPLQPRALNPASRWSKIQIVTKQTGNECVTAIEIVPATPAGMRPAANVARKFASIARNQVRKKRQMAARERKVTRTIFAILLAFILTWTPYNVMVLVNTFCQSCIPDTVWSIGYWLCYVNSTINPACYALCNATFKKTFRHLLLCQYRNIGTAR", "experiment": "M4 GTPγS PAM assay", "assay_type": "biochemical", "details": "membranes of CHO-K1 cells stably expressing human M4; EC20 acetylcholine 40 nM", "procedure": "The M4 GTPγS PAM method was used. Membranes were prepared for GTPgS binding assays from CHO-K1 cells stably expressing human M4 receptor. Briefly, cells were grown in 5-layer cell culture flasks. Cells were washed with 50 mL of PBS and then dissociated with 0.05% trypsin. Dissociated cells were then collected by centrifugation at 650×g for 8 minutes at 4° C. Pellets were washed again in PBS by centrifugation and resuspended in 30 mL of 20 mM HEPES, 10 mM EDTA, pH 7.4. After sitting on ice for 30 min, membranes were collected by centrifugation at 50000×g for 15′ at 4° C., resuspended in 30 mL of 20 mM HEPES, 0.1 mM EDTA, pH 7.4 and collected again by centrifugation. Pellets were then washed twice by centrifugation in 30 mL of 20 mM HEPES, pH 7.4, and stored at −80° C. until the day of the assay. On the day of the assay, pellets were thawed on ice and resuspended in 1 mL of 20 mM HEPES, pH 7.4, 10 mM MgCl2, 100 mM NaCl using dounce homogenization. Membrane protein concentration is determined by BCA protein assay (Promega, Madison, WI) according to Promega guidelines.\nOn the day of the assay, serial dilutions of test PAM compounds were brought up in assay buffer (20 mM HEPES, 10 mM MgCl2, 100 mM NaCl) at 4× final assay concentration. […] of membrane homogenates (containing […] of membrane protein) were prepared in assay buffer supplemented with GDP at 4× final assay concentration (final assay concentration of GDP is 5 μM for M2 and 0.1 μM for M4) and dispensed into 96 well polypropylene, U-bottom Greiner plates. […] of vehicle or test PAM compound at 4× of final assay concentration diluted in the assay buffer were added to membrane and plates are incubated for 10-15 minutes at room temperature with gentle shaking. Then, […] of EC20 acetylcholine in assay buffer at 4× final assay concentration was added to assay plates (EC20 final assay concentrations was 40 nM for human M4).\nPlates were then incubated, with shaking, for an additional 10-15 minutes. 25 mL of 0.4 nM ^35S-GTP (Perkin Elmer, Waltham, MA) in assay buffer was added to assay mixtures. The binding reaction is left on the shaker for 1 hour at room temperature. Membranes in assay reactions were then transferred to GF/C filter plates (Unifilter, Perkin Elmer) and washed three times using a FilterMate Harvester (Perkin Elmer) with cold assay buffer containing no GDP. Filter plates were then dried at 40° C. overnight followed by the addition of […] of Beta Plate Scintillation liquid. Plates are top and bottom sealed before being read on TopCount scintillation counter (Perkin Elmer, Waltham, MA)."}},
  "data": [
    {"smiles": "Cc1cc(=O)n(C)c2c1CN(C(=O)CC1CC1c1ccc(C(F)(F)F)cc1)C2", "note": "(single isomer, unassigned) [Compound I-7]", "values": [
      {"measurement": "EC50", "setting": "rM4 receptors", "result": "100 to 500", "unit": "nM"},
      {"measurement": "EC50", "setting": "human M4 receptor", "result": "< 100", "unit": "nM"}
    ]},
    {"smiles": "Cc1c2c(n(C)c(=O)c1F)CN(C(=O)CC1CC1c1ccc(C(F)(F)F)cc1)C2", "note": "(stereo not shown) [Compound I-26]", "values": [
      {"measurement": "EC50", "setting": "rM4 receptors", "result": "< 100", "unit": "nM"},
      {"measurement": "EC50", "setting": "human M4 receptor", "result": "< 100", "unit": "nM"}
    ]}
  ]
}
